The text below walks through data of paper PMC8282878, “Enhanced mosquitocidal efficacy of pyrethroid insecticides by nanometric emulsion preparation towards Culex pipiens larvae with biochemical and molecular docking studies” (Journal of the Egyptian Public Health Association, 2021).

For orientation: LC50 means the concentration that kills 50% of the test population. The EC50 is the concentration that produces a half-maximal response.

The conditions of series [1]: cited from earlier work.
Series [2] relates to glutathione-S-transferase (GST). The settings on record: larvae 24 h after treatment with LC50, untreated 2.70.
Experimental: The homogenate was centrifuged at 5000 rpm for 20 min at 4°C. The supernatant was used immediately for enzymatic assay or stored at – 20 °C. Total protein was determined according to Lowry et al.’s [23] method, and the concentrations were calculated by comparing with the standard curve of BSA.
GST assay was performed using reduced glutathione (2.5 mM) by Saint-Deniset et al. [26]. The assay mixture contained 100 μL of 1.5 mM CDNB, 200 μL of reduced glutathione, and 1.5 ml of pH 7.4 phosphate buffer. A total of 200 μL of the enzyme was added to the above mixture, shaken gently, and incubated for 15 min at 37 °C. The absorbance was recorded at 340 nm using a UV/Visible spectrophotometer (Alpha-1502. Laxco Inc, USA). One unit of enzyme activity attributed to the quantity of conjugated enzyme with 1 mmol of GSH per min. The enzyme activity was expressed as OD340 min^−1 mg protein^−1.
The test system of series [3] is adenosine triphosphatase (ATPase). Put plainly: ATPase assay in homogenate of surviving treated larvae. The format is biochemical, Culex pipiens. The settings on record: larvae 24 h after treatment with LC50, untreated 1.40. The procedure:
ATPase activity was performed according to Koch’s method. The reaction mixture, which contained 400 mM Na^+, 20 mM K^+, 5 mM Mg ^+, and 5 mM ATP, was prepared, and 200 μL of the crude enzyme was added to this mixture. Then, the volume was completed to 950 μL with Tris-HCl buffer (pH 7.4). After 10 min incubation at 37 °C, the reaction was stopped with 200 μL of TCA. A fresh color reagent (5 g ferrous sulfate in 10 mL ammonium molybdate solution prepared in 10 N sulfuric acid) was added to the reaction mixture. The absorbance of the developed blue color was measured at 740 nm, and the enzyme activity was calculated as OD740 min^−1 mg protein^−1.

For the next series, the system named is Culex pipiens larvae. The series can be described thus: Toxicity assay against C. pipiens larvae (WHO larval bioassay). It counts as in vivo. The settings on record: for LC50: Culex pipiens. The text has this:
A susceptible strain of C. pipiens culture was obtained from Research Institute of Medical Entomology, Ministry of Health, Dokki, Giza, Egypt, and reared in High Institute of Public Health insectary, Alexandria University, Alexandria, Egypt. The Larvae were fed on biscuits [containing wheat flour and yeast powder mixed with milk powder (10: 1: 1, w/w, respectively)] until pupation in shallow trays containing 2–3 L of de-chlorinated water. Male adults were fed on 30% sucrose solution, and females were fed on pigeon blood four times a week in adult cages. […] The egg rafts were transferred from adult cages to white trays containing de-chlorinated water for egg hatch.
According to the World Health Organization, the larval bioassay was performed to compare the effect of nanoemulsions of selected pyrethroids with their active ingredient and commercial EC formulations on the C. pipiens larva recommendations. Third instar larvae were used in the evaluation by a direct contact method. The three forms of tested insecticides (technical, commercial EC formulation, and nanoemulsion) were tested to obtain the LC50 values. Technical pyrethroids were dissolved in DMSO and mixed with Tween-80 (0.05%), while the EC and nanoemulsions were dissolved in distilled water. Different concentrations ranging from 0.5 to 500 μg/L were tested in three replicates. Twenty C. pipiens larvae were put into plastic cups containing 100 mL of de-chlorinated water. The larvae were treated separately with Tween 80 or DMSO, and larvae without any treatment were maintained as control. The larvae’s morbidity and mortality were verified and recorded based on the larvae’s uncoordinated movement after investigating the cervical region with a needle.

The subject of the next series is carboxylesterase (CaE). Put plainly: CaE assay in homogenate of surviving treated larvae. The format is biochemical, Culex pipiens. The settings on record: larvae 24 h after treatment with LC50, untreated 3.31. The procedure:
CaE activity was determined according to Van Asperen’s method, which used α-naphthyl acetate as a substrate. The assay mixture contained 50 μL of homogenate enzyme, 2.1 mL of 50 mM sodium phosphate buffer (pH 7.4), and 25 μL of 5 mM α-naphthyl acetate solution. The mixture incubation was done at 37 °C for 15 min. […] The absorption was measured at 555 nm. The enzyme activity was expressed as OD555 min^−1 mg protein^−1.

Series [4] deals with freshwater green alga Raphidocelis subcapitata. The series can be described thus: whole plant or invertebrate. The settings on record: for EC50: Raphidocelis subcapitata, 96 h, read-out: 96 h EC50 (95% confidence limits); for NOEC: no observed effect concentration on algal growth rate, NOEC = EC/10. The procedure: The freshwater green alga Raphidocelis subcapitata was obtained from the Faculty of Science; Mansoura University, Egypt. The stock culture was maintained in 250-mL borosilicate Erlenmeyer flasks containing culture medium at 24 ± 2 °C, under a continuous white fluorescent light of 3000–4000 lux, and manually shaken twice a day. The axenic culture was maintained for the provision of a continuous supply of “healthy” cells for the tests in a standard algal assay medium (AAM) as described in Miller et al..
An acute algal growth inhibition test was conducted using different concentrations of each insecticide in sterile AAM in a final volume of 50 mL. Tested concentrations of a pesticide were prepared from stock solutions on an arithmetic progression covering an expected range of toxicity from 0 to 90%. Stock solutions of technical insecticides were prepared in 1% DMSO and a corresponding control was included. Stock solutions of the EC and NE were prepared. Algal suspensions were exposed to different concentrations (0.0005–500 mg/L) prepared in the same medium of algae culture. All assays were conducted in triplicate. An inoculum of the exponentially-growing culture of R. subcapitata (harvested from 4–7 days stock culture) was prepared no more than 2–3 h before the beginning of the test. Initial cell density for the growth inhibition test was 10,000 cells/ml in both test and control flasks. Zero-time begins at inoculation of all flasks with the algal cells followed by incubation for 96 h in a temperature-controlled (25 °C) orbital shaker set at 100 rpm under continuous illumination via white fluorescent lamps. After 96 h, algal growth in terms of viable cell concentration was examined in a Neubauer hemocytometer using a phase-contrast microscope. Growth rate inhibition of the alga was used as the endpoint in this assessment. The percent inhibition values were calculated after 96 h, and the median effective concentration (EC50) values were calculated from the probit analysis with 95% confidence limits. The no observed effect concentration (NOEC) after algal exposure to each tested insecticide was calculated by the formula: NOEC = EC/10 [31]. Furthermore, the hazard statement of each tested insecticide was estimated according to UNECE GHS (2019).
Statistical analysis was performed using the IBM SPSS software version 25.0 (SPSS, Chicago, IL, USA). Mortality percentages were calculated for each treatment and corrected using Abbott’s equation [34]. Means and standard error (SE) were obtained from three independent replications performed for each treatment. The log dose-response (LdP) lines were used in the determination of the LC50 values for the mosquito’s bioassay and EC50 values for the algal bioassay according to the probit analysis. The least-square regression analysis was used to determine the 95% confidence limits. Analysis of variance (ANOVA) of the biochemical data was conducted and means property values were separated (p ≤ 0.05) with Student-Newman-Keuls (SNK).

Series [5] concerns C. tritaeniorhynchus larvae. Also noted: method as in PMID 28245893. The settings on record: cited from earlier work.

Structures are written as SMILES. Converted amounts (≈) assume the structure as drawn. “And” between values parts separate entries of the source, which are not always exact repeats. Identical values can stand only once. Like-named read-outs stand apart in the source and are kept apart here. Bounds are passed on as bounds.

Take `C[n+]1ccc(-c2cc[n+](C)cc2)cc1` [paraquat]: the “96 h EC50” value in series [1] is recorded as 0.48 mg/L.

`CC1(C)C(C=C(Cl)Cl)C1C(=O)OC(C#N)c1cccc(Oc2ccccc2)c1` (stereo not drawn) [Alpha-cypermethrin, alpha-cypermethrin]: the “Specific activity ± SE, GST” value in series [2] (listed as Alpha-cypermethrin T) was 5.31 OD mg protein^−1 min and 5.31 ± 0.70 OD mg protein^−1 min. The “Specific activity ± SE, ATPase” value in series [3] (listed as Alpha-cypermethrin T) was 0.86 OD mg protein^−1 min and 0.86 ± 0.02 OD mg protein^−1 min. For the same compound, the “Slope ± SE of the concentration mortality regression line” value (shortened to “Slope ± SE”) with Culex pipiens larvae (24 h exposure) was found to be 2.47 ± 0.15. In the series on Culex pipiens larvae (24 h), this compound returned a median lethal concentration (LC50) of 0.043 µg/mL (≈ 0.103 µM). Further, the LC50 with Culex pipiens larvae (48 h) was 0.04 µg/mL (≈ 0.0961 µM). For the same compound, the “Specific activity ± SE, CaE” value in the series with carboxylesterase (CaE) worked out at 5.06 ± 0.15 OD mg protein^−1 min. In addition, in series [4], the EC50 is 69.3 µg/mL (≈ 167 µM) and the NOEC was determined as 6.932 mg/L.

Regarding `CC1(C)[C@H](C(=O)O[C@H](C#N)c2cccc(Oc3ccccc3)c2)[C@@H]1/C=C(\Cl)C(F)(F)F` (racemic) [Lambda-cyhalothrin, lambda-cyhalothrin], the “Specific activity ± SE, GST” value in series [2] (listed as Lambda-cyhalothrin T) is 4.57 OD mg protein^−1 min and 4.57 ± 0.48 OD mg protein^−1 min. Further, the “Specific activity ± SE, ATPase” value in series [3] (listed as Lambda-cyhalothrin T) is 0.62 OD mg protein^−1 min and 0.62 ± 0.05 OD mg protein^−1 min. The “Slope ± SE” value in the series on Culex pipiens larvae (24 h exposure) turned out to be 1.47 ± 0.09; with Culex pipiens larvae (48 h exposure), 1.30 ± 0.09. Besides, the values for the LC50 with Culex pipiens larvae (24 h) and in the series with Culex pipiens larvae (48 h) were 0.027 µg/mL (≈ 0.06 µM) and 0.018 µg/mL (≈ 0.04 µM), respectively. Also, the “Specific activity ± SE, CaE” value in the series with carboxylesterase (CaE) is recorded as 1.51 ± 0.09 OD mg protein^−1 min. The EC50 in series [4] turned out to be 33.9 µg/mL (≈ 75.3 µM). The NOEC in series [4] was 3.389 mg/L.

On to `CC1(C)C(C=C(Cl)Cl)C1C(=O)OCc1cccc(Oc2ccccc2)c1` (centres unmarked) [bulk permethrin, permethrin], for which, in series [5], the LC50 was 442 µg/L (≈ 1.13 µM).

For the compound `CC1(C)C(C=C(Cl)Cl)C1C(=O)OCc1cccc(Oc2ccccc2)c1` (centres unmarked) [Permethrin, permethrin], the “Specific activity ± SE, GST” value in series [2] (listed as Permethrin T) was 6.32 OD mg protein^−1 min and 6.32 ± 0.59 OD mg protein^−1 min. Also, the “Specific activity ± SE, ATPase” value in series [3] (listed as Permethrin T) is 0.64 OD mg protein^−1 min and 0.64 ± 0.00 OD mg protein^−1 min. In addition, the figures for the “Slope ± SE” value in the series with Culex pipiens larvae (24 h exposure) and with Culex pipiens larvae (48 h exposure) were 1.36 ± 0.089 and 1.26 ± 0.08, respectively. In addition, the 50% lethal concentration (LC50) is 0.322 µg/mL (≈ 0.823 µM) in the series with Culex pipiens larvae (24 h), 0.225 µg/mL (≈ 0.575 µM) with Culex pipiens larvae (48 h) and 0.127 to 0.322 µg/mL (≈ 0.325 to 0.823 µM) with Culex pipiens larvae (read-out: LC50 range). In the series on carboxylesterase (CaE), the “Specific activity ± SE, CaE” value came out at 2.31 ± 0.09 OD mg protein^−1 min. For the same compound, in series [4], the EC50 was found to be 14.9 µg/mL (≈ 38.2 µM). The same compound gave an NOEC in series [4] of 1.494 mg/L.

As to `CC1(C)[C@H](C(=O)O[C@H](C#N)c2cccc(Oc3ccccc3)c2)[C@@H]1C=C(Br)Br` [Deltamethrin, deltamethrin], the “Specific activity ± SE, GST” value in series [2] came out at 5.49 ± 0.60 OD mg protein^−1 min. For the same compound, the “Specific activity ± SE, ATPase” value in series [3] (listed as Deltamethrin T) is 0.69 OD mg protein^−1 min and 0.69 ± 0.02 OD mg protein^−1 min. Besides, the “Slope ± SE” value came out at 2.23 ± 0.13 in the series with Culex pipiens larvae (24 h exposure) and 2.12 ± 0.13 with Culex pipiens larvae (48 h exposure). For the same compound, the LC50 with Culex pipiens larvae (third instar larvae, 24 h exposure, read-out: LC50) worked out at 0.028 µg/mL (≈ 0.0554 µM); in the series with Culex pipiens larvae (third instar larvae, 48 h exposure, read-out: LC50), 0.025 µg/mL (≈ 0.0495 µM). For the same compound, the “Specific activity ± SE, CaE” value in the series on carboxylesterase (CaE) (listed as Deltamethrin T) is 4.53 OD mg protein^−1 min and 3.44 ± 0.19 OD mg protein^−1 min. For the same compound, the 50% effective concentration (EC50) in series [4] is more than 100 µg/mL. In addition, in series [4], the NOEC is more than 10 mg/L.
